Measured values from patent US12162893B2 (Erasca, Inc., priority 2020, dated 2024).

Biological target: T1, mutant G12C K-RAS (Homo sapiens, UniProt P01116, G12C)
T1 construct: made in house; host or cells: E. coli BL21
Test: covalent adduct formation (CAF) with mutant G12C K-RAS
Type: binding
Settings: for % CAF @ 10 μM,1 h: Table 6; for % CAF @ 10 uM, 1 h: Table 5; for % CAF (60 min): after 60 minutes at 10 micromolar
Method: Embodiments disclosed herein are further illustrated by the following examples in Tables 1-4 and the Examples hereinbelow. The Tables indicate the compound number, structure, the observed mass spectral molecular weight peak, and covalent adduct formation (CAF) with a mutant G12C K-RAS after 60 minutes at a concentration of 10 micromolar.

[1] = Table 2, Pyrimidone Core-Morpholine Substituted
[2] = Table 1, Pyrimidone Core-Morpholine Unsubstituted

| SMILES | % CAF @ 10 μM,1 h | other results |
| --- | --- | --- |
| C=CC(=O)N1C[C@H](C)N(c2nc(=O)n3c4c(c(-c5ccc(F)cc5F)c(Cl)cc24)O[C@H](CCCO)C3)C[C@H]1C [Example 249, (2R)-7-((2S,5R)-4-acryloyl-2,5-dimethylpiperazin-1-yl)-9-chloro-10-(2,4-difluorophenyl)-2-(3-hydroxypropyl)-2,3-dihydro-5H-[1,4]oxazino[2,3,4-ij]quinazolin-5-one] | 51.2% |  |
| C=CC(=O)N1C[C@H](C)N(c2nc(=O)n3c4c(c(-c5ccc(F)cc5F)c(Cl)cc24)OC[C@H]3CN(C)CC(F)(F)F)C[C@H]1C [Example 235, (3R)-7-((2S,5R)-4-acryloyl-2,5-dimethylpiperazin-1-yl)-9-chloro-10-(2,4-difluorophenyl)-3-((methyl(2,2,2-trifluoroethyl)amino)methyl)-2H-[1,4]oxazino[2,3,4-ij]quinazolin-5(3H)-one] | 44.5% |  |
| C=CC(=O)N1C[C@H](C)N(c2nc(=O)n3c4c(c(-c5ccc(F)cc5F)c(Cl)cc24)OC[C@H]3Cn2ccnc2)C[C@H]1C [Example 267, (3R)-3-((1H-imidazol-1-yl)methyl)-7-((2S,5R)-4-acryloyl-2,5-dimethylpiperazin-1-yl)-9-chloro-10-(2,4-difluorophenyl)-2H-[1,4]oxazino[2,3,4-ij]quinazolin-5(3H)-one] | 13.6% |  |
| C=CC(=O)N1C[C@H](C)N(c2nc(=O)n3c4c(c(-c5ccc(F)cc5F)c(Cl)cc24)OC[C@@H]3CCCO)C[C@H]1C [Example 250, (3S)-7-((2S,5R)-4-acryloyl-2,5-dimethylpiperazin-1-yl)-9-chloro-10-(2,4-difluorophenyl)-3-(3-hydroxypropyl)-2,3-dihydro-5H-[1,4]oxazino[2,3,4-ij]quinazolin-5-one] | 70.1% |  |
| C=CC(=O)N1C[C@H](C)N(c2nc(=O)n3c4c(c(-c5ccc(F)cc5F)c(Cl)cc24)OC[C@H]3CN2CCN(C)CC2=O)C[C@H]1C [Example 280, (3R)-7-((2S,5R)-4-acryloyl-2,5-dimethylpiperazin-1-yl)-9-chloro-10-(2,4-difluorophenyl)-3-((4-methyl-2-oxopiperazin-1-yl)methyl)-2H-[1,4]oxazino[2,3,4-ij]quinazolin-5(3H)-one] | 57.5% |  |
| C=CC(=O)N1C[C@H](C)N(c2nc(=O)n3c4c(c(-c5cccc6ccccc56)c(Cl)cc24)OC[C@H]3Cn2cccn2)C[C@H]1C (atropisomer, axis not shown) [Example 292, (3R,10S)-3-((1H-pyrazol-1-yl)methyl)-7-((2S,5R)-4-acryloyl-2,5-dimethylpiperazin-1-yl)-9-chloro-10-(naphthalen-1-yl)-2,3-dihydro-5H-[1,4]oxazino[2,3,4-ij]quinazolin-5-one] | 95% |  |
| C=CC(=O)N1CCN(c2nc(=O)n3c4c(c(-c5ccc(F)cc5F)c(Cl)cc24)SC[C@H]3CN2CCN(CC(F)F)CC2)[C@@H](C)C1 [Example 70, (3R)-7-((S)-4-acryloyl-2-methylpiperazin-1-yl)-9-chloro-3-((4-(2,2-difluoroethyl)piperazin-1-yl)methyl)-10-(2,4-difluorophenyl)-2,3-dihydro-5H-[1,4]thiazino[2,3,4-ij]quinazolin-5-one] |  | % CAF @ 10 uM, 1 h: 94% |
| C=CC(=O)N1C[C@H](C)N(c2nc(=O)n3c4c(c(-c5c(O)cccc5F)c(Cl)cc24)OC[C@@H]3CO)C[C@H]1C [Example 28, (3S,10R)-7-((2S,5R)-4-acryloyl-2,5-dimethylpiperazin-1-yl)-9-chloro-10-(2-fluoro-6-hydroxyphenyl)-3-(hydroxymethyl)-2H-[1,4]oxazino[2,3,4-ij]quinazolin-5(3H)-one] |  | % CAF (60 min) [1]: 1.3% |
| C=CC(=O)N1C[C@H](C)N(c2nc(=O)n3c4c(c(-c5cccc6cccc(Cl)c56)ccc24)OCC3)C[C@H]1C [Example 15, 7-((2S,5R)-4-acryloyl-2,5-dimethylpiperazin-1-yl)-10-(8-chloronaphthalen-1-yl)-2H-[1,4]oxazino[2,3,4-ij]quinazolin-5(3H)-one] |  | % CAF (60 min) [2]: 0% |
| C=CC(=O)N1C[C@H](C)N(c2nc(=O)n3c4c(c(-c5c(C)ccc6[nH]ncc56)c(Cl)cc24)OC[C@H]3Cn2cccn2)C[C@H]1C (atropisomer, axis not shown) [Example 319, (3R,10S)-3-((1H-pyrazol-1-yl)methyl)-7-((2S,5R)-4-acryloyl-2,5-dimethylpiperazin-1-yl)-9-chloro-10-(5-methyl-1H-indazol-4-yl)-2,3-dihydro-5H-[1,4]oxazino[2,3,4-ij]quinazolin-5-one] | 0% |  |
| C=CC(=O)N1C[C@H](C)N(c2nc(=O)n3c4c(c(-c5c(F)ccc6cc[nH]c(=O)c56)ccc24)OCC3)C[C@H]1C [Example 224, 7-((2S,5R)-4-acryloyl-2,5-dimethylpiperazin-1-yl)-10-(7-fluoro-1-oxo-1,2-dihydroisoquinolin-8-yl)-2,3-dihydro-5H-[1,4]oxazino[2,3,4-ij]quinazolin-5-one] | 0% |  |
| C=CC(=O)N1CCN(c2nc(=O)n3c4c(c(-c5c(O)cccc5F)c(Cl)cc24)OC[C@@H]3CO)[C@@H](C)C1 (single isomer, unassigned) [Example 25] |  | % CAF (60 min) [1]: 84.7% |
| C=CC(=O)N1C[C@H](C)N(c2nc(=O)n3c4c(c(-c5ccc(F)cc5F)c(Cl)cc24)OC[C@@H]3CN2CCC2)C[C@H]1C [Example 232, (3S)-7-((2S,5R)-4-acryloyl-2,5-dimethylpiperazin-1-yl)-3-(azetidin-1-ylmethyl)-9-chloro-10-(2,4-difluorophenyl)-2H-[1,4]oxazino[2,3,4-ij]quinazolin-5(3H)-one] | 82.4% |  |
| C=CC(=O)N1C[C@H](C)N(c2nc(=O)n3c4c(c(-c5ccc(F)cc5F)c(Cl)cc24)OC[C@H]3CCCN2CCOCC2)C[C@H]1C [Example 218, (3R)-7-((2S,5R)-4-acryloyl-2,5-dimethylpiperazin-1-yl)-9-chloro-10-(2,4-difluorophenyl)-3-(3-morpholinopropyl)-2,3-dihydro-5H-[1,4]oxazino[2,3,4-ij]quinazolin-5-one] | 95.6% |  |
| C=CC(=O)N1C[C@H](C)N(c2nc(=O)n3c4c(c(-c5ccc(F)cc5F)c(Cl)cc24)OC[C@H]3CN2C[C@H]3CC[C@@H](C2)N3C)C[C@H]1C [Example 285, (3R)-7-((2S,5R)-4-acryloyl-2,5-dimethylpiperazin-1-yl)-9-chloro-10-(2,4-difluorophenyl)-3-(((1R,5S)-8-methyl-3,8-diazabicyclo[3.2.1]octan-3-yl)methyl)-2H-[1,4]oxazino[2,3,4-ij]quinazolin-5(3H)-one] | 86.2% |  |
| C=CC(=O)N1C[C@H](C)N(c2nc(=O)n3c4c(c(-c5cc(Cl)ccc5F)c(Cl)cc24)OC[C@@H]3CN2CCOCC2)C[C@H]1C [Example 211, (3S)-7-((2S,5R)-4-acryloyl-2,5-dimethylpiperazin-1-yl)-9-chloro-10-(5-chloro-2-fluorophenyl)-3-(morpholinomethyl)-2,3-dihydro-5H-[1,4]oxazino[2,3,4-ij]quinazolin-5-one] | 77.4% |  |
| C=CC(=O)N1CCN(c2nc(=O)n3c4c(c(-c5c(C)ccc6[nH]ncc56)c(Cl)cc24)OCC3)CC1 [Example 8, (S)-7-(4-acryloylpiperazin-1-yl)-9-chloro-10-(5-methyl-1H-indazol-4-yl)-2H-[1,4]oxazino[2,3,4-ij]quinazolin-5(3H)-one] |  | % CAF (60 min) [2]: 0% |
| C=CC(=O)N1C[C@H](C)N(c2nc(=O)n3c4c(c(-c5ccc(F)cc5F)c(Cl)cc24)OC[C@H]3CN2CCN(C)CC2)C[C@H]1C [Example 256, (3R)-7-((2S,5R)-4-acryloyl-2,5-dimethylpiperazin-1-yl)-9-chloro-10-(2,4-difluorophenyl)-3-((4-methylpiperazin-1-yl)methyl)-2H-[1,4]oxazino[2,3,4-ij]quinazolin-5(3H)-one] | 80.1% |  |
| C=CC(=O)N1CCN(c2nc(=O)n3c4c(c(-c5c(O)cccc5F)c(Cl)cc24)OC[C@@H]3CO)CC1 [Example 21, (3S)-7-(4-acryloylpiperazin-1-yl)-9-chloro-10-(2-fluoro-6-hydroxyphenyl)-3-(hydroxymethyl)-2H-[1,4]oxazino[2,3,4-ij]quinazolin-5(3H)-one] |  | % CAF (60 min) [1]: 72.8% |
| C=CC(=O)N1C[C@H](C)N(c2nc(=O)n3c4c(c(-c5ccc(F)cc5F)c(Cl)cc24)OC[C@H]3CCCN2CCN(C)CC2)C[C@H]1C [Example 264, (3R)-7-((2S,5R)-4-acryloyl-2,5-dimethylpiperazin-1-yl)-9-chloro-10-(2,4-difluorophenyl)-3-(3-(4-methylpiperazin-1-yl)propyl)-2,3-dihydro-5H-[1,4]oxazino[2,3,4-ij]quinazolin-5-one] | 97.4% |  |
| C=CC(=O)N1CCN(c2nc(=O)n3c4c(c(-c5ccc(F)cc5F)c(C(F)(F)F)cc24)SCC3)C2CS(=O)(=O)CC21 (centres unmarked) [Example 100, 7-(4-acryloyl-6,6-dioxidohexahydrothieno[3,4-b]pyrazin-1(2H)-yl)-10-(2,4-difluorophenyl)-9-(trifluoromethyl)-2,3-dihydro-5H-[1,4]thiazino[2,3,4-ij]quinazolin-5-one] |  | % CAF @ 10 uM, 1 h: 94% |
| C=CC(=O)N1CCN(c2nc(=O)n3c4c(c(-c5c(C)ccc6[nH]ncc56)c(Cl)cc24)OCC3)CC1 [Example 7, (R)-7-(4-acryloylpiperazin-1-yl)-9-chloro-10-(5-methyl-1H-indazol-4-yl)-2H-[1,4]oxazino[2,3,4-ij]quinazolin-5(3H)-one] |  | % CAF (60 min) [2]: 79.6% |
| C=CC(=O)N1C2CC(=O)CC1CN(c1nc(=O)n3c4c(c(-c5ccc(F)cc5F)c(C(F)(F)F)cc14)OCC3)C2 [Example 337, 7-(9-acryloyl-7-oxo-3,9-diazabicyclo[3.3.1]nonan-3-yl)-10-(2,4-difluorophenyl)-9-(trifluoromethyl)-2,3-dihydro-5H-[1,4]oxazino[2,3,4-ij]quinazolin-5-one] | 95.9% |  |
